From patent US20250099465A1, “REMIBRUTINIB FOR USE IN THE TREATMENT OF HIDRADENITIS SUPPURATIVA” (NOVARTIS AG, priority 2022, published 2025)
Values joined by “and” are separate entries in the source; they are usually repeats but may differ in a detail not shown here. Equal entries are not always repeated. Where two headings read alike, the source gives them in different places.

What was measured:
[1] = human, in vivo; cited from earlier work
[2] = molecular target: T1, BTK (Homo sapiens, UniProt Q06187); conditions: single or multiple doses 0.5 mg to 600 mg up to 18 days; 100 and 200 mg b.i.d. up to 12 days; cited from earlier work
T1 construct: simulate BTK occupancy in human spleen/tissues; from tissue; host or cells: human spleen / lymph node / peripheral tissue B cells (simulated, not measured)

[3] = 52-week open label extension study in CSU subjects (interim analyses); assay type: in vivo;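 note: Open-label extension assessing long-term safety and tolerability in CSU patients previously enrolled in the Phase 2b trial, dosed at 100 mg b.i.d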
Description: In a 52-week open label extension study to evaluate the long-term safety and tolerability of LOU064 in eligible subjects with CSU who participated in the Phase 2b study the dose used was 100 mg b.i.d.
Table 4 presents the safety summary observed in the Phase 2b study up to the cut-off date for the interim analysis.

[4] = molecular target: T1, BTK; test: Phase I clinical study (Kaul et al. 2021): PK, BTK occupancy in blood, short-term safety; assay type: in vivo
Excerpt: BTK occupancy in blood is not an informative biomarker for the purpose of dose selection due to LOU064 pharmacological properties (irreversible binding). […] Occupancy in tissue may be more representative of the expected efficacy of LOU064.
Pharmacokinetic data from a Phase I clinical study reported by Kaul et al. (2021) were used in the current analysis, including 102 patients.
A population PK model has been developed to describe the interim PK from a Phase I clinical study reported by Kaul et al. (2021). […] Overall the resulting population model described the PK data reasonably well.

[5] = Co-administration of LOU064 with oral contraceptives; conditions: in vivo
Excerpt: Therefore, in a preferred embodiment, LOU064 is co-administered with oral contraceptives.

[6] = Phase 2b randomized, double-blind, placebo-controlled core study in CSU patients; assay type: in vivo
Description: In a Phase 2b, randomized, double-blind, placebo-controlled trial evaluating the efficacy and safety of LOU064 over 12 weeks in patients inadequately controlled by […], with at least moderately active chronic spontaneous urticaria (CSU), patients received LOU064 10 mg q.d. (once daily), 35 mg q.d., 100 mg q.d., 10 mg b.i.d. (twice daily), 25 mg b.i.d., 100 mg b.i.d., or placebo (1:1:1:1:1:1:1 ratio).
(Table 5) In the long-term exposure of the ES (median 35.14 wks, N=183), the proportion of patients with at least one adverse effect (AE) on remibrutinib treatment (57.4% [n=105]) was similar to the CS (presented through for any remibrutinib dose) (58.1% [n=155]; median 12.14 wks, N=267). In the ES, there were 4 serious adverse effects (SAEs), 6 AEs leading to treatment discontinuation and no deaths. The incidences of AEs by […] (SOC) reported in the ES and CS were similar: infections and infestations (23.0% and 24.0%), followed by skin/subcutaneous tissue disorder (17.5% and 16.9%) (Table 5). […] Incidence of AESI in the ES such as infections (23%), bleeding (4.4%) and cytopenias (0.5%) were in line with the CS. Newly occurring notable transaminase increases were single in both ES (isolated ALT>3×ULN, normalized within 4 weeks, in 1 patient discontinued early for personal reasons) and CS (ALT>5×ULN in 1 patient, normalised on treatment).

[7] = cited from earlier work
[8] = higher dose treatment arms; cited from earlier work
[9] = HS patients; cited from earlier work
[10] = tested on: B cells; conditions: case study; cited from earlier work
[11] = tested on: HS explant cultures; conditions: cited from earlier work
[12] = 100 mg B.I.D., N = 100, interim analysis cut off 31 Aug. 2020
[13] = 100 mg b.i.d., N = 100 interim analysis
[14] = ES, CSU patients, 100 mg b.i.d., N = 183, median 35.14 wks, listed as remibrutinib
[15] = Phase 2b core and extension study
[16] = CS, CSU patients, Any dose, N = 267, listed as remibrutinib

T1 sequence (Q06187 whole entry): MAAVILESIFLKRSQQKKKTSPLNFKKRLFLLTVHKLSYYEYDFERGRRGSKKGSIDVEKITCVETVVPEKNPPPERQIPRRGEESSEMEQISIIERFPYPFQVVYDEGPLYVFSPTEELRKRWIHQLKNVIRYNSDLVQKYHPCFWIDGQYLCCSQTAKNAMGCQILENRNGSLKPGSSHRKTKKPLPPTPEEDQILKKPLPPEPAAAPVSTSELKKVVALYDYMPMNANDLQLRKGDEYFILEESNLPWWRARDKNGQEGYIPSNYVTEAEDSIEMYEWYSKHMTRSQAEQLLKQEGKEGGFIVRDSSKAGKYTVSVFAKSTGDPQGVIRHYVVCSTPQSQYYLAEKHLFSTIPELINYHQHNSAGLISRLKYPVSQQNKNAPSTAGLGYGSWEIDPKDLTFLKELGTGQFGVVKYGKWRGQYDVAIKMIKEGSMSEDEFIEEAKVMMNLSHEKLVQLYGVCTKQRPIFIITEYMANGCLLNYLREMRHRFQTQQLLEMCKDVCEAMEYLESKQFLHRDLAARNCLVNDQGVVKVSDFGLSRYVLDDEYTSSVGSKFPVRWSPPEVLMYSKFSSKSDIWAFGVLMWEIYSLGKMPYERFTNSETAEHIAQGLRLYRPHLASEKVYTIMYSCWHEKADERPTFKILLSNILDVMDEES

CC#CC(=O)N1CCC[C@H]1c1nc(-c2ccc(C(=O)Nc3ccccn3)cc2)c2c(N)nccn12 [Acalabrutinib]
commonly observed adverse reactions [1]: infection, headache, and diarrhea

C=CC(=O)N(C)CCOc1c(N)ncnc1-c1cc(F)cc(NC(=O)c2ccc(C3CC3)cc2F)c1C [LOU064, N-(3-(6-amino-5-(2-(N-methylacrylamido)ethoxy)pyrimidin-4-yl)-5-fluoro-2-methylphenyl)-4-cyclopropyl-2-fluorobenzamide]
Short-term safety [2]: has been shown | Death [3, 12]: 0 n (%) | Discontinued study due to an SAE(s) [3, 12]: 0 n (%) | Discontinued study due to any AE(s) [3, 12]: 0 n (%) | Non-fatal SAE [3, 12]: 3 (3.0) n (%) | Treatment interruption due to AE(s) [3, 12]: 5 (5.0) n (%) | Treatment interruption due to SAE(s) [3, 12]: 1 (1.0) n (%) | Patients with AE(s) ([3]; 100 mg B.I.D., N = 100, interim analysis cut off 31 Aug. 2020, median exposure 17.86 weeks): 58 (58) n (%) | safety signal ([3]; 100 mg b.i.d., 100 subjects, median exposure 17.86 weeks): No safety signal has been observed | SAEs reported (ovarian cyst, chest pain, appendicitis; none related to study drug) [3, 13]: Three | SOC Infections and infestations [3, 13]: 14% | SOC Skin and subcutaneous tissue disorders [3, 13]: 13% | adverse event preferred term: diarrhea [3, 13]: 4% | adverse event preferred term: dizziness [3, 13]: 3% | adverse event preferred term: gastroenteritis [3, 13]: 3% | adverse event preferred term: headache [3, 13]: 6% | bleeding events or events under SOC Blood and lymphatic system disorders [3, 13]: no bleeding events | subjects who experienced at least one treatment emergent AE [3, 13]: 58% | dose-limiting liver enzyme elevations and other off-target-effects ([3]; 100 mg b.i.d., up to 52 weeks): does not induce any dose-limiting liver enzyme elevations and other off-target-effects | Incidence of AESI: bleeding ([3]; ES, 100 mg b.i.d., N=183): 4.4% | Incidence of AESI: cytopenias ([3]; ES, 100 mg b.i.d., N=183): 0.5% | Incidence of AESI: infections ([3]; ES, 100 mg b.i.d., N=183): 23% | Newly occurring notable transaminase increases: isolated ALT>3×ULN, normalized within 4 weeks ([3]; ES, 100 mg b.i.d., N=183): 1 patient | deaths ([3]; ES, 100 mg b.i.d., N=183, median 35.14 wks): no deaths | AEs by primary system organ class: Skin and subcutaneous tissue disorders ([3]; ES, CSU patients, 100 mg b.i.d., N = 183, median 35.14 wks): 32 n | AEs by PT: Headache [3, 14]: 6.6% | AEs by primary system organ class: Infections and infestations [3, 14]: 23.0% | AEs by primary system organ class: Skin and subcutaneous tissue disorders [3, 14]: 17.5% | Discontinued study treatment due to AE(s) [3, 14]: 6 n | Patients with SAE(s) [3, 14]: 4 n | ECG findings or QT of >500 ms [3, 15]: no significant ECG findings or QT of >500 ms noted in any patient | analysis of laboratory parameters [3, 15]: did not reveal significant safety concerns | vital signs [3, 15]: no clinically meaningful changes | safety profile over longer-term exposure ([3]; whole dose range, 100 mg bid up to 52 wks, patients with CSU): no new safety signals | change in clearance after repeated dosing ([4]; doses lower than 50 mg, no difference at higher doses): lower clearance at steady state at Day 12 when compared to Day 1 | BTK occupancy in blood ([4]; low doses): reaches full occupancy even at low doses | impact on exposure and efficacy of co-administered oral contraceptives (ethinylestradiol or levonorgestrel) [5]: without a major impact on their exposure and efficacy | efficacy in CSU compared to the other doses ([6]; 25 mg b.i.d. regimen, 12 weeks, CSU inadequately controlled by antihistamines): particularly effective | AEs by PT: Headache [6, 16]: 9.7% | AEs by primary system organ class: Infections and infestations [6, 16]: 24.0% | AEs by primary system organ class: Skin and subcutaneous tissue disorders [6, 16]: 16.9% | Newly occurring notable transaminase increases: ALT>5×ULN, normalised on treatment ([6]; CS, any remibrutinib dose): 1 patient

C=CC(=O)N1CCC(CNc2ncnc(N)c2-c2ccc(Oc3ccccc3)cc2)CC1 [evobrutinib]
dose-limiting side effects ([7]; 75 mg b.i.d., Phase II clinical studies): dose-limiting liver enzyme elevations

C[C@H]1CN(C2COC2)CCN1c1ccc(Nc2cc(-c3ccnc(N4CCn5c(cc6c5CC(C)(C)C6)C4=O)c3CO)cn(C)c2=O)nc1 [fenebrutinib]
subjects with transient grade 3 elevations of ALT and/or AST [8]: 8.3% and 6.3%

C=CC(=O)N1CCC[C@@H](n2c(=O)n(-c3ccc(Oc4ccccc4)cc3)c3c(N)nccc32)C1 [tolebrutinib]
dose-limiting side effects ([7]; human, in vivo): dose-limiting diarrhea

adalimumab
patients with suboptimal therapeutic responses [9]: ~40%

rituximab: B-cell depletor, CD20 antagonist
outcome of HS treatment using B-cell depletion [10]: successful treatment of HS | effect in HS explant cultures [11]: anti-inflammatory effects
